Assay results published in US20160214926A1, “DIPHENYLOXYALKYLAMINE DERIVATIVES AND ARYLOXYALKYLAMINE DERIVATIVES, PHARMACEUTICAL COMPOSITION, USE OF SAID PHARMACEUTICAL COMPOSITION FOR TREATING, PREVENTING OR INHIBITING CHRONIC PULMONARY INFLAMMATORY DISEASES AND METHOD FOR TREATING OR PREVENTING SUCH DISEASES” (FUNDACAO OSWALDO CRUZ, priority 2013, published 2016).

Tests used:
[1] = system: A/J mice; assay: Ovalbumin asthma model: airway hyperreactivity, leukocyte infiltration, cytokines (nebulization); assay type: in vivo; details: for airway hyperreactivity (lung resistance and elastance after methacholine): nebulization 2% for 30 minutes, OVA sensitized and challenged; for IL-5 generation in lung tissue / IL-13 generation in lung tissue / eotaxin-2 generation in lung tissue / increased production of eotaxin-1: nebulization 2%
Method: Male A/J mice (18-20 g), coming from the Laboratory Animal Breeding Center of Oswaldo Cruz Foundation, were used in the experiments. The animals were previously sensitized with a mixture of ovalbumin (OVA) (50 μg) (Grade V; Sigma, St. Louis, Mo., USA) and aluminum hydroxide (5 mg) administered subcutaneously on day 0 with boost on day 14 (equal suspension administered intraperitoneally). Nasal instillations of OVA (25 μg/25 μl in sterile 0.9% NaCl) were administered on days 14, 21, 28 and 35, with the hyperresponsiveness analysis performed 24 hours after the last challenge. […] That is, the treatments took place after the installation of asthma framework, reflecting a therapeutic action of the respective compounds analyzed.
The effect of the treatments on bronchial hyperreactivity was investigated by measuring the resistance changes and pulmonary elastance, using invasive barometric plethysmography whole-body system (Buxco, USA), as previously described (Olsen et al., 2012).

[2] = system: rat tracheal rings; assay: Inhibition of carbachol-induced contraction of rat tracheal rings (pretreatment); details: Rattus norvegicus
Description: In this study, Wistar rats of both sexes were used, weighing between 200 and 250 g, coming from the Laboratory Animal Breeding Center of Fundacdo Oswaldo Cruz. As previously described (Coelho et al., 2008), the animals were sacrificed by exposure to air atmosphere enriched with CO2, Then, the anterior cervical region was opened so that the trachea could be located and removed. It was then transferred to a Petri dish containing Krebs solution with the following composition (mM): NaCl (118), KCl (4.8), CaCl2 (2.5), MgSO4 (1.2), KH2PO4 (1.2), NaHCO3 (24), and glucose (11). The total segment was divided into fragments of about 3 to 4 rings, which were kept in another Petri dish containing Krebs solution. Each fragment was mounted vertically on a 10 ml cuvette with Krebs solution maintained at 37° C. and aerated with carbogen mixture (95% O2 and 5% CO2). The lower rod is fixed to the cuvette base and the top portion was attached to the isometric transducer for measuring the voltage variation of the fragment. The transducer was connected to a device which transforms the voltage variation in digital record. The fragments were subjected to a basal voltage of 1 g and were calibrated, so that the subsequent contractions could be expressed as a percentage of this 1 g voltage. The solutions were introduced inside the cuvettes with the aid of an automatic pipette. The end of the tip was always placed at the same height and position, without touching the muscle. The tracheal rings were initially contracted with 2.5 μM of carbachol. When the contractions reached the plateau, each segment was washed until the total relaxation of the smooth muscle. […] All results were expressed as percentage of the contraction produced by 2.5 μM of carbachol (Coelho et al., 2008).

[3] = system: rat tracheas pre-contracted with carbachol; assay: Relaxation of rat trachea pre-contracted with carbachol
Method: To assess the potential relaxing effect of the respiratory smooth muscle, rat tracheas were obtained and maintained in an isolated organ bath, as previously described (Coelho et al., 2008). The tracheal segments were then pre-contracted with carbachol at the concentration of 2.5 μM and subjected to increasing concentrations of the tested compounds. All results were expressed as percentage of the contraction produced by carbachol (Coelho et al., 2008).

[4] = system: mast cells of the RBL-2H3 line; assay: Antigen-induced degranulation of sensitized mast cells (beta-hexosaminidase release); assay type: cell-based; details: Rattus norvegicus; for IC50: RBL-2H3, 1 h, RBL-2H3, DNP-BSA 10 ng/ml, 60 minutes treatment, read-out: IC50 blocking of anaphylactic mast cell degranulation; for Emax: RBL-2H3, DNP-BSA, read-out: EMAX blocking of anaphylactic mast cell degranulation
Method: For this study, mast cells of the RBL-2H3 line were used, as previously reported (Beaven et al., 1987). […] The cells were then dissociated from the plate using trypsin, centrifuged at 1000 rpm for 5 minutes and distributed in 48-well plates at a density of 125,000 cells per well. The cells were sensitized with monoclonal DNP-specific […] (1 μg/mL) diluted in the same medium used for the cultivation and maintained in the oven for 20 hours. After this period, the cells were washed with Tyrode-gelatin and subjected to treatment with increasing concentrations of […]-209 or mexiletine for 60 minutes. Then, incubation was performed with DNP-BSA (10 ng/ml) for a further period of 60 minutes. After this period, 10 μL of supernatant were collected from each well and added to a 96-well plate. The cells were lysed with 200 μL of 0.1% Triton X-100 and 10 μL of the lysate of each plate were added to the 96-well plate. Then, 40 μL of substrate for the β-hexosaminidase enzyme were added to the samples. After 40 minutes of reaction, reaction stopping solution (0.2 M glycine) was added, generating a colorimetric response, which was measured by spectrophotometer (λ=405 nm).

[5] = system: A/J mice; assay: Methacholine-induced bronchospasm (Penh), whole-body plethysmography; assay type: in vivo; details: for blocking of methacholine-induced increase of Penh (cholinergic bronchospasm): 30 and 100 mg/kg orally
Method: A/J mice of both sexes were used, weighing between 18 and 20 g, coming from the Laboratory Animal Breeding Center of Oswaldo Cruz Foundation. Using barometric whole-body plethysmography (Buxco Research System, Wilmington, N.C.), bronchospasm responses caused by subsequent inhalations of methacholine (12, 25 and 50 mg/ml for 2.5 minutes, 5-minute intervals) were measured in standard A/J mice, awake, not immobilized, as previously reported (Coelho et al., 2008; Hamelmann et al., 1997). Penh measures in response to methacholine challenge were performed 1 hour and 3 hours after treatment with JME-207 and JME-209 (30 and 100 mg/kg) administered orally (gavage).

[6] = system: A/J mice; assay: LPS-induced lung inflammation and airway hyperreactivity; assay type: in vivo
Method: Male A/J mice (18-20 g), coming from the Laboratory Animal Breeding Center of Oswaldo Cruz Foundation, were used in the experiments. The mice were anesthetized with halothane aerosol ([…], SP, Brazil) to receive intranasal administration of LPS (25 μg/25 μl 0.9% NaCl, instillation) or 0.9% NaCl (25 μl) (negative control). […] Obtaining of bronchoalveolar lavage, as well as the total and differential leukocyte counts carried out in this effluent, were made as previously described (Kummerle et al., 2012). Thus, after 18 hrs of LPS instillation, the mice were sacrificed by terminal anesthesia with thiopental (500 mg/kg). Then, they had the trachea dissected and cannulated. Bronchoalveolar lavage (BAL) was performed by 3 consecutive lavages of 800 μl of PBS containing EDTA (10 mM). The lavages were then subjected to centrifugation (1500 rpm-10 minutes) and the cell “pellet” resuspended in the volume of 0.5 ml of PBS/EDTA solution 10 mM. The total leukocyte count from the lavage was performed in a Neubauer chamber by light microscopy (100× magnification), diluting an aliquot of the cell suspension from the lavage in TPrk liquid (1:40). The differential counting was performed on cytocentrifuged, which were stained with May-Grunwald-Giemsa and assessed using oil immersion objective (1000× magnification) (Kummerle et al., 2012). The airway hyperreactivity was also assessed 18 hours after LPS, by exposing the animals to increasing concentrations of aerosolized methacholine (3-27 mg/ml) in FinePoint R/C Buxco® system (Buxco Electronics, Sharon, Conn., USA). The mice were anesthetized with Nembutal (60 mg/kg, i.p.) for the tracheostomy procedure and connection of the animal to mechanical ventilation and pneumotachograph of the FinePoint platform. The neuromuscular activity was blocked with pancuronium bromide (1 mg/kg, i.v.) to enable the pulmonary resistance records (cm H20/mL/s) and elastance (cm H20/mL) in each respiratory cycle, as previously reported (Olsen et al., 2011).

[7] = system: A/J mice; assay: Acute airway inflammation induced by cigarette smoke; assay type: in vivo; details: JME-209 30 and 100 mg/kg
Method: Male A/J mice (18-20 g), coming from the Laboratory Animal Breeding Center of Oswaldo Cruz Foundation, were used in the experiments. The animals were placed in a chamber and subjected to an atmosphere enriched with 100 ml of smoke from 4 filter cigarettes (trade mark) for 1 minute on four consecutive days. Control animals were exposed to the condition in which cigarette smoke was replaced by equal volume of ambient air (Castro et al., 2009).
[…] The compounds were dissolved in 0.9% NaCl just prior to administration.
Obtaining of bronchoalveolar lavage, as well as the total and differential leukocyte counts carried out in this effluent, were made as previously described (Olsen et al., 2011). Thus, after 24 hrs of the last exposure to cigarette smoke, the mice were sacrificed by terminal anesthesia with thiopental (500 mg/kg). Then, they had the trachea dissected and cannulated BAL was performed by 3 consecutive lavages of 800 μl of PBS containing EDTA (10 mM). The lavages were then subjected to centrifugation (1500 rpm-10 minutes) and the cell “pellet” resuspended in the volume of 0.5 ml of PBS/EDTA solution 10 mM. The total leukocyte count from the lavage was performed in a Neubauer chamber by light microscopy (100× magnification), diluting an aliquot of the cell suspension from the lavage in TPrk liquid (1:40). The differential counting was performed on cytocentrifuged, which were stained with May-Grunwald-Giemsa and assessed using oil immersion objective (1000× magnification).

[8] = system: tracheal rings; assay: Anaphylactic (ovalbumin-induced) contraction of tracheal rings from sensitized rats; design: species or system Wistar rats; details: compound 30 μM
Method: In this study, Wistar rats of both sexes were used, weighing between 200 and 250 g, coming from the Laboratory Animal Breeding Center of Fundacdo Oswaldo Cruz. As described previously (da Costa et al., 2007), the animals were sensitized by injection into the dorsal subcutaneous tissue with mixture containing 50 μg of ovalbumin and 5 mg of aluminum hydroxide on days 0 and 7. On the 14th day after the first sensitization, the animals were sacrificed for the removal of the trachea. After a stabilization period of 30 minutes, the tracheal rings were contracted initially with carbachol (2.5 μM) for testing the feasibility and reproducibility of the responses of the preparation.
The tracheal rings were exposed to increasing concentrations of JME-173 (3-30 μM), or carrier (0.9% NaCl) for 30 minutes before the triggering of the contractile response triggered by ovalbumin (100 μg/ml). Salmeterol (30 μM) was used as reference treatment. The responses were expressed as mean±Standard Error of the Mean of at least 5 tracheal segments. All results were expressed as percentage of the contraction produced by 2.5 μM of carbachol.

[9] = 30 and 100 mg/kg orally 1 hour before LPS

## CC(N)COc1cccc(I)c1.Cl (centres unmarked) [JME-141]
[1]
  airway hyperreactivity (lung resistance and elastance after methacholine): abolished

## CC(N)COc1ccc(F)c(Cl)c1.Cl (centres unmarked) [JME-188]
[1]
  IL-5 generation in lung tissue: equally sensitive
  IL-13 generation in lung tissue: equally sensitive
  eotaxin-2 generation in lung tissue: inhibited
  increased production of eotaxin-1: failed to modify
  airway hyperreactivity (lung resistance and elastance after methacholine): abolished

## Cc1cc(I)ccc1OCC(C)N.Cl (centres unmarked) [JME-207]
[2]; carbachol 10 μM, pretreated 10 minutes
  IC50: 40.9 µM
[2]; carbachol 10 μM, pretreated 10 minutes, mean ± SEM, read-out: EMAX maximum effect of inhibition of carbachol-induced contraction
  Emax: 92.9 ± 4.3%
[2]; compound 100 μM, pre-treatment 10 minutes, read-out: inhibition of the muscarinic contraction
  inhibition at 100 µM: ~93%
[3]; Rattus norvegicus, trachea pre-contracted with carbachol 2.5 μM, mean±SEM
  EC50: 1000 µM
[3]; pre-contracted trachea
  times more potent as relaxation inducers than mexiletine: 146 times
[3]; trachea pre-contracted with carbachol 2.5 μM, mean±SEM
  maximum relaxation effect: 111%
[4]
  IC50: 2.3 µM
  Emax: 94%
[5]; 3 hours after treatment
  blocking of methacholine-induced increase of Penh (cholinergic bronchospasm): significantly inhibited
[1]
  IL-5 generation in lung tissue: equally sensitive
  IL-13 generation in lung tissue: equally sensitive
  eotaxin-2 generation in lung tissue: only the latter inhibited
  increased production of eotaxin-1: failed to modify
  airway hyperreactivity (lung resistance and elastance after methacholine): abolished

## CC(N)COc1ccc(-c2ccccc2)cc1.Cl (centres unmarked) [JME-209]
[4]
  IC50: 28.6 µM
  Emax: 100%
[5]; 100 mg/kg orally
  action time: at least 3 hours
[5]; 1 hour after treatment
  blocking of methacholine-induced increase of Penh (cholinergic bronchospasm): slight blocking
[5]; 3 hours after treatment
  blocking of methacholine-induced increase of Penh (cholinergic bronchospasm): active only at the highest dose
[6]; [9]
  increase in the number of mononuclear cells in bronchoalveolar lavage: without significantly altering
  levels of eosinophils in bronchoalveolar lavage: reducing
  levels of neutrophils in bronchoalveolar lavage: reducing
[6]; 30 and 100 mg/kg orally 1 hour before LPS, 18 hours after challenge
  leukocyte infiltration in bronchoalveolar space: inhibited
[6]; oral treatment 1 hour before LPS, 18 hours after LPS
  airway hyperreactivity (lung resistance and elastance): inhibited
[7]; dexamethasone 1 mg/kg, orally
  eosinophils in bronchoalveolar effluent: blocked
  mononuclear cells in bronchoalveolar effluent: blocked
  neutrophils in bronchoalveolar effluent: blocked
[7]; dexamethasone 3 mg/kg, orally 1 hr before smoke
  accumulation of total leukocytes in bronchoalveolar space: significantly inhibited

## OCc1cc(C(O)CNCCCCCCOCCCCc2ccccc2)ccc1O (centres unmarked) [salmeterol, reference compound]
[8]
  blocking of anaphylactic contraction: 52%
